According to patent US20250163061A1 (Bala Therapeutics, Inc., priority 2021, published 2025):

Tests used:
Format in all cases: cell-based
[1] = tested on: MOLM-13; experiment: MOLM-13 cellular growth inhibition assay (CellTiter-Glo); details: Homo sapiens, 168 h, MOLM-13 cells, 7 days of incubation
Procedure: (§1) HEK293 (Institute of Cytology Russian Academy of Science), MV4-11 (ATCC, CRL-9591), MOLM-13 (AcceGen, ABC-TC517S) were seeded at a density of 500 cells per well (HEK293) and 2000 cells per well (MV4-11, MOLM-13) in a 384-well clear bottom plate (Greiner Cat #781090) in 45 μl total volume of DMEM (PanEco, Cat #C420, Russia) or RPMI (PanEco, Cat #C330, Russia) with 10% FBS (HyClone Cat #SV30160.03). HEK293 were allowed to adhere overnight at 37° C., 5% CO2. 500× compounds solutions in DMSO (Sigma Cat #D2650) were prepared into Cmpnds plate (Diamond Well Plate, Axigen, Cat #P-384-120SQ-C-S) and DMSO only control was included. 1 μl of 500× compounds (Cmpnds plate) was added to 49 μl of culture medium into Dilution plate (Diamond Well Plate, Axigen, Cat #P-384-120SQ-C-S), mixed and then 5 μl of 10× compounds solutions were transferred to cells followed by centrifugation at 100 g for 1 min. Final DMSO concentration was 0.2%. After 3 days of incubation, 10 μl of 1× compounds were added to cells. After 7 days of incubation, 12 μl of CellTiter-Glo (Promega, CAT #G7572) were added to the cells, plate was centrifuged at 100 g for 1 min and luminescence signal was measured using Microplate Reader (CLARIOStar).

[2] = tested on: MV4-11; experiment: MV4-11 cellular growth inhibition assay (CellTiter-Glo); details: Homo sapiens, 168 h, MV4-11 cells, 7 days of incubation
Procedure: as §1

[3] = HEK293 cellular growth inhibition assay (CellTiter-Glo); details: human, HEK293 cells, 7 days of incubation
Procedure: as §1

SMILES	CC50 [1] [nM]	CC50 [2] [nM]	CC50 at 7 days [3] [nM]
Cc1c(CN2CCC3(CC2)CN(c2ncnc4ccc(CC(F)(F)F)cc24)C3)ccc2c1cc(C#N)n2Cc1ccc(=O)[nH]c1 [Compound 14, 4-Methyl-1-[(6-oxo-1,6-dihydropyridin-3-yl)methyl]-5-({2-[6-(2,2,2-trifluoroethyl)quinazolin-4-yl]-2,7-diazaspiro[3.5]non-7-yl}methyl)-1H-indole-2-carbonitrile]	≤ 100	≤ 100	≤ 2000
CCS(=O)(=O)N1CCN([C@H](C)Cn2c(C#N)cc3c(C)c(CN4CCC5(CC4)CN(c4ncnc6ccc(CC(F)(F)F)cc46)C5)ccc32)C[C@@H]1C [Compound 25, 1-[(2R)-2-[(3S)-4-ethylsulfonyl-3-methyl-piperazin-1-yl]propyl]-4-methyl-5-[[2-[6-(2,2,2-trifluoroethyl)quinazolin-4-yl]-2,7-diazaspiro[3.5]nonan-7-yl]methyl]indole-2-carbonitrile]	500 to 1000	100 to 500	2000 to 5000
C=CC(=O)N1CCN(CCCCn2c(C#N)cc3c(C)c(CN4CCC5(CC4)CN(c4ncnc6ccc(CC(F)(F)F)cc46)C5)ccc32)CC1 [Compound 65, 1-[4-(4-Acryloylpiperazin-1-yl)butyl]-4-methyl-5-({2-[6-(2,2,2-trifluoroethyl)quinazolin-4-yl]-2,7-diazaspiro[3.5]non-7-yl}methyl)-1H-indole-2-carbonitrile]	1000 to 5000	100 to 500	≤ 2000
Cc1c(CN2CCC3(CC2)CN(c2ncnc4ccc(CC(F)(F)F)cc24)C3)ccc2c1cc(C#N)n2CC1CNC(=O)CO1 (stereo not drawn) [Compound 82, 4-Methyl-1-[(5-oxomorpholin-2-yl)methyl]-5-({2-[6-(2,2,2-trifluoroethyl)quinazolin-4-yl]-2,7-diazaspiro[3.5]non-7-yl}methyl)-1H-indole-2-carbonitrile]	100 to 500	≤ 100	2000 to 5000
Cc1c(CN2CCC3(CC2)CN(c2ncnc4ccc(CC(F)(F)F)cc24)C3)ccc2c1cc(C#N)n2C[C@@H]1CNC(=O)CO1 [Compound 102, 4-Methyl-1-{[(2S)-5-oxomorpholin-2-yl]methyl}-5-({2-[6-(2,2,2-trifluoroethyl)quinazolin-4-yl]-2,7-diazaspiro[3.5]non-7-yl}methyl)-1H-indole-2-carbonitrile]	100 to 500	≤ 100	≤ 2000
Cc1c(CN2CCC3(CC2)CN(c2ncnc4ccc(CC(F)(F)F)cc24)C3)ccc2c1cc(C#N)n2CC1CCNC(=O)C1 (stereo not drawn) [Compound 22, 4-Methyl-1-[(2-oxopiperidin-4-yl)methyl]-5-({2-[6-(2,2,2-trifluoroethyl)quinazolin-4-yl]-2,7-diazaspiro[3.5]non-7-yl}methyl)-1H-indole-2-carbonitrile]	500 to 1000	100 to 500	2000 to 5000
CC(=O)NC12CC(Cn3c(C#N)cc4c(C)c(CN5CCC6(CC5)CN(c5ncnc7ccc(CC(F)(F)F)cc57)C6)ccc43)(C1)C2 [Compound 59, N-[3-[[2-Cyano-4-methyl-5-[[2-[6-(2,2,2-trifluoroethyl)quinazolin-4-yl]-2,7-diazaspiro[3.5]nonan-7-yl]methyl]indol-1-yl]methyl]-1-bicyclo[1.1.1]pentanyl]acetamide]	≤ 100	≤ 100	2000 to 5000
Cc1c(CN2CCC3(CC2)CN(c2ncnc4ccc(CC(F)(F)F)cc24)C3)ccc2c1cc(C#N)n2CC(C)N1CCNC(=O)C1 (stereo not drawn) [Compound 93, 4-Methyl-1-[2-(3-oxopiperazin-1-yl)propyl]-5-({2-[6-(2,2,2-trifluoroethyl)quinazolin-4-yl]-2,7-diazaspiro[3.5]non-7-yl}methyl)-1H-indole-2-carbonitrile]	500 to 1000	≤ 100	2000 to 5000
Cc1c(CN2CCC3(CC2)CN(c2ncnc4ccc(CC(F)(F)F)cc24)C3)ccc2c1cc(C#N)n2CC1CCC(=O)NC1 (stereo not drawn) [Compound 72, 4-Methyl-1-[(6-oxopiperidin-3-yl)methyl]-5-({2-[6-(2,2,2-trifluoroethyl)quinazolin-4-yl]-2,7-diazaspiro[3.5]non-7-yl}methyl)-1H-indole-2-carbonitrile]	500 to 1000	100 to 500	≤ 2000
COc1cc2c(cc1CN1CCC3(CC1)CN(c1ncnc4ccc(CC(F)(F)F)cc14)C3)cc(C#N)n2CC(C)N1CCN(S(C)(=O)=O)CC1 (stereo not drawn) [Compound 20, 6-Methoxy-1-{2-[4-(methylsulfonyl)piperazin-1-yl]propyl}-5-({2-[6-(2,2,2-trifluoroethyl)quinazolin-4-yl]-2,7-diazaspiro[3.5]non-7-yl}methyl)-1H-indole-2-carbonitrile]	1000 to 5000	100 to 500	2000 to 5000
Cc1c(CN2CCC3(CC2)CN(c2ncnc4ccc(CC(F)(F)F)cc24)C3)ccc2[nH]c(C#N)cc12 [Compound 68, 4-Methyl-5-({2-[6-(2,2,2-trifluoroethyl)quinazolin-4-yl]-2,7-diazaspiro[3.5]non-7-yl}methyl)-1H-indole-2-carbonitrile]	500 to 1000	100 to 500	2000 to 5000
CN(C)C/C=C/C(=O)N1CCN(CCn2c(C#N)cc3cc(CN4CCC5(CC4)CN(c4ncnc6ccc(CC(F)(F)F)cc46)C5)ccc32)CC1 [Compound 99]	1000 to 5000	1000 to 5000	≤ 2000
Cc1c(CN2CCC3(CC2)CN(c2ncnc4ncc(CC(F)(F)F)cc24)C3)ccc2c1cc(C#N)n2CC(C)N1CCN(S(C)(=O)=O)CC1 (stereo not drawn) [Compound 89, 4-Methyl-1-{2-[4-(methylsulfonyl)piperazin-1-yl]propyl}-5-({2-[6-(2,2,2-trifluoroethyl)pyrido[2,3-d]pyrimidin-4-yl]-2,7-diazaspiro[3.5]non-7-yl}methyl)-1H-indole-2-carbonitrile]	500 to 1000	≤ 100	≤ 2000
CCCCS(=O)(=O)N1CCCN(C(C)Cn2c(C#N)cc3c(C)c(CN4CCC5(CC4)CN(c4ncnc6ccc(CC(F)(F)F)cc46)C5)ccc32)CC1 (stereo not drawn) [Compound 73, 1-{2-[4-(Butylsulfonyl)-1,4-diazepan-1-yl]propyl}-4-methyl-5-({2-[6-(2,2,2-trifluoroethyl)quinazolin-4-yl]-2,7-diazaspiro[3.5]non-7-yl}methyl)-1H-indole-2-carbonitrile]	500 to 1000	≤ 100	> 20000
N#Cc1cc2cc(CN3CCC4(CC3)CN(c3ncnc5ccc(CC(F)(F)F)cc35)C4)ccc2[nH]1 [Compound 98]	1000 to 5000	500 to 1000	5000 to 10000
Cc1c(CN2CCC3(CC2)CN(c2ncnc4ccc(CC(F)(F)F)cc24)C3)ccc2c1cc(C#N)n2C[C@H]1CNC(=O)CO1 [Compound 101, 4-Methyl-1-{[(2R)-5-oxomorpholin-2-yl]methyl}-5-({2-[6-(2,2,2-trifluoroethyl)quinazolin-4-yl]-2,7-diazaspiro[3.5]non-7-yl}methyl)-1H-indole-2-carbonitrile]	1000 to 5000	100 to 500	2000 to 5000
Cc1c(CN2CCC3(CC2)CN(c2ncnc4ccc(CC(F)(F)F)cc24)C3)ccc2c1cc(C#N)n2CC1CNC(=O)C(C)O1 (stereo not drawn) [Compound 7, 4-Methyl-1-[(6-methyl-5-oxo-morpholin-2-yl)methyl]-5-[[2-[6-(2,2,2-trifluoroethyl)quinazolin-4-yl]-2,7-diazaspiro[3.5]nonan-7-yl]methyl]indole-2-carbonitrile]	100 to 500	≤ 100	2000 to 5000
Cc1c(CN2CCC3(CC2)CN(c2ncnc4ccc(CC(F)(F)F)nc24)C3)ccc2c1cc(C#N)n2CC(C)N1CCN(S(C)(=O)=O)CC1 (stereo not drawn) [Compound 67, 4-Methyl-1-{2-[4-(methylsulfonyl)piperazin-1-yl]propyl}-5-({2-[6-(2,2,2-trifluoroethyl)pyrido[3,2-d]pyrimidin-4-yl]-2,7-diazaspiro[3.5]non-7-yl}methyl)-1H-indole-2-carbonitrile]	100 to 500	100 to 500	5000 to 10000
